Structures are written as SMILES.

In assay [1] the target is T1, RGS2-FBXO44 interaction (Homo sapiens, UniProt P41220).
T1 construct: expressed in transfected cells
T1 sequence (P41220 1-211): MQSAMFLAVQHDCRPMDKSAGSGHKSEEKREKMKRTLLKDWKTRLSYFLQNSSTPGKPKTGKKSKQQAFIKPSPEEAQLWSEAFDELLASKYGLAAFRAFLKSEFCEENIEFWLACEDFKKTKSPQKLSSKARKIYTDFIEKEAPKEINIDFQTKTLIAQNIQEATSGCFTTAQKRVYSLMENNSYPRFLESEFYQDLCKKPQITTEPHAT
The assay is described as follows: RGS2-FBXO44 NanoBit assay (HEK-293T RGS2-SmBiT/LgBiT-FBXO44 stable clone #6). In kind it is cell-based. As to the method:
Nano-Glo Live Cell Substrate (LCS) was diluted 1:50 in HBSS to form a 2× stock, and then, 15 μL was added to each well. Plates were shaken on an orbital shaker at 500 rpm for 5 minutes protected from light and then spun down at 1000 rpm for 30 seconds. Plates were incubated at room temperature for 20 minutes, and then, luminescence was detected on a Synergy Neo2 multimode plate reader.
HEK-293T-RGS2-FBXO44 NanoBit cells were treated for 16–18 hours with compound at 100 μM. This relatively high concentration was chosen because of the challenging nature of our assay (intracellular PPI inhibition). Parental HEK-293T cells were used as a negative control. […] Based on these criteria, 97 compounds were identified as hits from our primary screen (6.1% initial hit rate). To confirm hits, the same assay was repeated in triplicate, which delivered 34 compounds that reached the threshold for inhibition in at least 2 replicates with <25% cell toxicity (Fig. 2C; Supplemental Table 1), thus rendering a final hit rate of 2.1%.
Fresh powders of 20 compounds were purchased and reassayed for their ability to inhibit the RGS2-FBXO44 NanoBit signal, using the same assay paradigm as in the primary screen (Fig. 3; Table 1). […] Nevertheless, all compounds were confirmed to inhibit the RGS2-FBXO44 NanoBit signal at this high concentration.
We next assessed the concentration-dependent effect of our 20 hits. Compounds were assayed at concentrations ranging from 500 to 0.01 μM. NanoBit luminescence (relative luminescence units) was normalized to viability (RFU) and presented as a percentage of untreated cells.

The target of a further assay is T2, RGS4 (Homo sapiens, UniProt P49798).
T2 construct: expressed in transfected cells; host or cells: HEK-293T, transient transfection
The assay is described as follows: Cellular thermal shift assay (CETSA), RGS4-HA. The settings on record: 100 μM overnight (16–18 hours); gradient 40–60 °C; vs DMSO. In kind it is binding. As to the method: The cells in 100 mm dishes were harvested by trypsination in reduced serum media and transferred to 15 mL conical tubes. The cells were centrifuged at 300 × g for 3 minutes. Media was removed, and the cell pellet was washed with 10 mL of PBS. The cells were then resuspended in 500 μL of PBS and aliquoted into polymerase chain reaction (PCR) tubes. The cells were then heated in a PCR gradient (40–60 °C) for 3 minutes and then transferred to a 25 °C PCR block for 3 minutes. Following this, cells were immediately flash-frozen using liquid nitrogen. The cells were freeze-thawed 3 times to lyse the cells and then spun down at 20,000 × g for 20 minutes. The supernatant was then added to sample buffer and heated for 5 minutes at 95 °C before SDS-PAGE and western blot analysis.
We next assessed whether the action of compound 10 to inhibit the RGS2-FBXO44 interaction is through direct binding to either protein. […] The cells were lysed and analyzed by western blot to determine melting temperatures (Tm). […] We also assessed the effect of compound 10 on the Tm for RGS4, which is closely related to RGS2 and also subject to proteasomal degradation, however, independent of FBXO44 ([Lee et al, 2005]; [Sjögren et al, 2015]).

The target of assay [2] is T1, RGS2-FBXO44 interaction. The assay is described as follows: Coimmunoprecipitation of RGS2-HA and FLAG-FBXO44. Type of assay: cell-based. The conditions noted are these: 100 μM; anti-HA IP, FLAG-FBXO44 normalized to input, vs DMSO. As to the method: The cells were harvested in RIPA buffer containing protease inhibitors. The cells were then lysed by incubating on ice with occasional vortexing for 30 minutes. The cell lysates were centrifuged at 9600 × g for 10 minutes, and the supernatants were precleared by incubating with 40 μL prewashed protein A agarose beads (Roche) for 1 hour with slow rotation at 4 °C. The samples were then centrifuged at 10,000 rpm for 1 minute, and the supernatant was used to determine total protein concentration with the Pierce BCA Protein Assay Kit (Thermo Scientific). In total, 500 μg of total protein was used for each reaction. The samples were incubated with 100 μM compound 10 for 30 minutes with rotation at 4 °C. An equal amount of DMSO was used as a vehicle. Additionally, 20 μL was removed from each sample (input); 3 μL of rabbit anti-HA antibody (H6908; Sigma Aldrich) and 40μL of protein A agarose beads (Roche) were added to each sample prior to incubation on rotator at 4 °C overnight. The samples were centrifuged at 9600 × g for 5 minutes at 4 °C, and the supernatant was removed. The samples were washed once with 1 mL RIPA buffer and then 3× with 1 mL PBS. Bound proteins were eluted by heating the samples at 95 °C in 30 μL of SDS sample buffer for 10 minutes. The samples were centrifuged at 10,000 rpm for 5 minutes at 4 °C, and the supernatants were subjected to SDS-PAGE and western blot analysis. […]

T2 sequence (P49798 whole entry, species assumed): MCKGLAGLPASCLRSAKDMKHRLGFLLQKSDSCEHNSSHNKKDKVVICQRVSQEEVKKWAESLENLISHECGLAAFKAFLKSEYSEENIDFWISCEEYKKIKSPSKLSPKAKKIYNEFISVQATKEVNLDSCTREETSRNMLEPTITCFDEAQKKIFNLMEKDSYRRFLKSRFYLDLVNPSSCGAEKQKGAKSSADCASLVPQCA

In general, IC50 refers to the midpoint of a concentration-inhibition curve. With `CCC1CCCCN1S(=O)(=O)c1cc(Br)ccc1OC` (stereo not shown) [Compound 10], the “% Inhibition @ 100 μM of RGS2-FBXO44 NanoBit signal” value at RGS2-FBXO44 interaction [1] (100 μM, 16–18 hours, fresh powder, luminescence normalized to viability, vs nontreated cells) is 71.7∗∗∗∗ %. In addition, at RGS2-FBXO44 interaction [1] (concentrations 500 to 0.01 μM, RLU normalized to viability (RFU), read-out: IC50 (μM), inhibition of RGS2-FBXO44 NanoBit signal), the IC50 was determined as 19.6 µM. Further, the “Effect on the Tm for RGS4” value at RGS4 is reported as “no significant effect”. Further, the “Association between RGS2 and FBXO44 (co-IP)” value on RGS2-FBXO44 interaction [2] is given as “almost completely blocked”.

The values above are taken from paper PMC13095444, “Discovery of RGS2-FBXO44 interaction inhibitors using a cell-based NanoBit assay” (Molecular Pharmacology, 2025).
